Experimental findings from article PMC6504997 (ACS chemical biology, 2018) are described below.

Structures are written as SMILES.

Usually % inhibition stands for the drop in the measured response relative to a control, in per cent.

The target in the experiment is EXOSC3 (GST-EXOSC3, EXOSC3-WT) (Homo sapiens, UniProt Q9NQT5). The experiment can be described thus: MST, inhibition of RNA binding. To be noted: 3.12 μM long G-rich RNA (GGGAGGGAGGGAGAGGGA).
Chain of EXOSC3 (GST-EXOSC3, EXOSC3-WT) (Q9NQT5 whole entry): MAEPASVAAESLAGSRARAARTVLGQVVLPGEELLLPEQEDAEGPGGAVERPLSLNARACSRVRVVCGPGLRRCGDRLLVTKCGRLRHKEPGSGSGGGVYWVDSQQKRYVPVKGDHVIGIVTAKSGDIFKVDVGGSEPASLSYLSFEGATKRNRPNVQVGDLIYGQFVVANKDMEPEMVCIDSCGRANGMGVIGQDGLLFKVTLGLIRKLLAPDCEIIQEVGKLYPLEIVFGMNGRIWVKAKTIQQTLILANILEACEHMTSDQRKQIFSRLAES

Consider `CC(C)(O)CCc1cccc(C(=O)N2Cc3ccccc3C(O)C2)c1` (stereo not shown) [ERD03, EXOSC3-RNA disrupting (ERD) compound 3], for which the “% inhibition at 50 μM” value was determined as 54 ± 10%.
